Reference: patent publication US20160271139A1, “METHOD FOR NON-TOXIC TREATMENT FOR DRUG WITHDRAWAL” (DEMERX, INC., priority 2013, published 2016)
“Also recorded” adds a separate entry of the source.

Legend:
[1] = test system: healthy, drug-free male volunteers; test: Pupillary miosis by pupillometry in healthy volunteers; type: in vivo, human; details: single oral 3-60 mg, vs placebo p>0.9
Procedure: Pulse oximetry and capnography data were collected continuously using a GE Carescape B650 monitoring system from 2 hours prior to dosing and until six hours after dosing, and thereafter at 12, 24, 48 and 72 hours post-dosing. […] Pupillary miosis was assessed by pupillometry.
Dose-proportionality of AUC and Cmax was assessed using linear regression.

dogs = test: Single dose acute oral toxicity/TK study in dogs; type: in vivo, dog
[2] = test system: animal models of addiction; details: cited from earlier work
[3] = test system: opioid-dependent participants; test: Efficacy in opioid-dependent participants: time to resumption of opioid substitution treatment; type: in vivo, human
Procedure: (§1) The efficacy of noribogaine in humans was evaluated in opioid-dependent participants in a randomized, placebo-controlled, double-blind trial. In the first cohort, six patients were orally administered a single dose of 60 mg noribogaine, and three patients received placebo. In the second cohort, five patients were orally administered a single dose of 120 mg noribogaine, and three patients received placebo.

[4] = Plasma toxicokinetics in dogs, days 1 and 14; type: in vivo, dog; details: for T1/2 / Tmax: mean plasma
Procedure: Noribogaine HCl was administered to groups of 4 male and 4 female dogs by single oral gavage daily for 14 days at doses of 0, 0.5, 1.0 and 5.0 mg/kg/day. An additional group of 4 male and 4 female dogs received either the vehicle control or 5.0 mg/kg/day for 14 days and were held for an additional 28 days after cessation of dosing to assess recovery from any potential drug-induced changes. The study was conducted under GLP guidelines and included comprehensive examinations of clinical signs, body weight, clinical pathology parameters, ophthalmologic examinations. ECG recordings and analyses of plasma for bioanalytical measurement of drug levels at appropriate intervals during the study. At the termination of the dosing phase and at the termination of the recovery phase, all dogs were subjected to a complete post-mortem examination including gross examination of major organs and histologic examination of an extensive list of tissues. Additional sections of brain were obtained from cerebrum, cerebellus, brain stem and spinal cord and examined histologically to evaluate potential effects on brain histopathology. In addition, these sections were examined with immunohistochemical stains for GFAP for evidence of gliosis and Calbindin for a more comprehensive examination of cerebellar Purkinje cells.

various animal species = test: Pre-clinical toxicity studies in various animal species (background); type: in vivo
[5] = Human pharmacokinetic study, single oral dose, serum levels (Example 6); type: in vivo; details: human serum, fasting
Procedure: In double blind studies, fasting healthy volunteers (6 per cohort) were treated once orally with a tablet of noribogaine HCl. In escalating cohorts, the volunteers received 3 mg, 10 mg, 30 mg or 60 mg noribogaine.

[6] = test system: opioid-dependent participants; test: Safety (QT interval, adverse effects) in opioid-dependent participants; type: in vivo, human
Procedure: as §1

[7] = test system: healthy, drug-free male volunteers; test: Safety and tolerability in healthy volunteers; type: in vivo, human
Procedure: (§2) Safety and tolerability of noribogaine were tested in the group of volunteers from Example 1. […] Safety evaluations included clinical monitoring, recording of adverse events (AEs), safety laboratory tests, vital signs, ECO telemetry from −2 h to 6 h after dosing, and 12-lead electrocardiograms (ECGs) up to 216 hours post-dosing.

[8] = test system: healthy, drug-free male volunteers; test: Cold pressor test in healthy volunteers; type: in vivo, human; details: single oral 3-60 mg, vs placebo p>0.9 and p=0.17
Procedure: Analgesic effect was assessed based on duration of hand immersion in ice water and on visual analog scale (VAS) pain scores upon hand removal from the water bath.
as §2

[9] = Urine noribogaine and noribogaine glucuronide elimination in healthy volunteers; type: in vivo; details: human urine
cynomolgus monkey = test: Single dose toxicity in cynomolgus monkeys; type: in vivo; details: oral gavage
Procedure: The objective of the study was to determine the toxicity and toxicokinetic profile of noribogaine following oral (gavage) administration to the cynomolgus monkey. The test article was administered as follows in Table 1:
Parameters monitored on the study included: mortality, clinical signs and body weights. Blood samples were collected for TK evaluation. […] The single dose maximum tolerated dose (MTD) was determined to be greater than 160 mg/kg based on the parameters monitored during the study.

[10] = female dogs, Gr 2 - 0.5 mg/kg, D1
[11] = female dogs, Gr 2 - 0.5 mg/kg, D14
[12] = female dogs, Gr 3 - 1.0 mg/kg, D1
[13] = female dogs, Gr 3 - 1.0 mg/kg, D14
[14] = female dogs, Gr 4 - 5.0 mg/kg, D1
[15] = female dogs, Gr 4 - 5.0 mg/kg, D14
[16] = single oral dose 30 mg free base
[17] = opioid-dependent participants, single oral 60 mg or 120 mg

## CC[C@H]1C[C@H]2C[C@H]3c4[nH]c5ccc(O)cc5c4CCN(C2)[C@@H]13 [noribogaine]
[1]
  Pupillary constriction (dark-adapted pupil diameter): no evidence of pupillary constriction
dogs
  NOAEL: 5 mg/kg
dogs; 5 mg/kg
  Findings at the NOAEL dose: only transient reduction in food consumption in one dog
dogs; 10 mg/kg, beginning 20 minutes after dosing, persisting until 3 h 40 m post-dose
  Clinical signs: Convulsions and other CNS-related clinical signs
dogs; 5 (n=2) or 10 (n=2) mg/kg
  Mortality: no mortality occurred
[2]; alcohol, cocaine and opiate dependence
  Efficacy in animal models of addiction: effective in animal models of addiction to alcohol, cocaine and opiate dependence
[2]; animal model
  Psychotomimetic effects: had no activity
[2]; various animal addiction models
  Drug-seeking behavior: significantly reduced drug-seeking behavior
[3]; first cohort, blinded: 60 mg noribogaine or placebo
  Time to resumption of opioids longer than that reported for untreated patients in a similar study: ~2 h
[3]; first cohort, blinded: single oral 60 mg noribogaine (6 patients) or placebo (3 patients)
  Average time to resumption of opioids: approximately 8.7 hours
[3]; second cohort, 120 mg, five presumed noribogaine-treated patients (those with QT prolongation)
  Average time to resumption of OST: approximately 26.8 hours
[3]; second cohort, blinded: single oral 120 mg noribogaine (5 patients) or placebo (3 patients)
  Average time to resumption of opioids: approximately 23 hours
[4]; [10]
  T1/2: 60 min
  Tmax: 30 min
[4]; [11]
  T1/2: 66 min
  Tmax: 60 min
[4]; [12]
  T1/2: 84 min
  Tmax: 48 min
[4]; [13]
  T1/2: 96 min
  Tmax: 30 min
[4]; [14]
  T1/2: 258 min
  Tmax: 36 min
[4]; [15]
  T1/2: 342 min
  Tmax: 36 min
[4]; male and female dogs of Group 4 (5.0 mg/kg), Days 1 and 14
  Plasma level at 24 h post-dosing: significant levels of noribogaine were still detected
[4]; male dogs, Gr 2 - 0.5 mg/kg, D1
  Tmax: 42 min
[4]; male dogs, Gr 2 - 0.5 mg/kg, D14
  Tmax: 42 min
[4]; male dogs, Gr 3 - 1.0 mg/kg, D1
  Tmax: 54 min
[4]; male dogs, Gr 3 - 1.0 mg/kg, D14
  Tmax: 48 min
[4]; male dogs, Gr 4 - 5.0 mg/kg, D1
  Tmax: 36 min
[4]; male dogs, Gr 4 - 5.0 mg/kg, D14
  Tmax: 54 min
Various animal species
  Toxicity at high doses: can cause convulsions and other CNS-related clinical signs, respiratory arrest and death
[5]; single oral dose 3 mg free base
  time after administration at which mean Cmax was observed: 1.9 h
[5]; single oral dose 10 mg free base
  time after administration at which mean Cmax was observed: 2.9 h
[5]; [16]
  mean Cmax: 55.0 ng/mL
  time after administration at which mean Cmax was observed: 1.75 h
[5]; single oral dose 60 mg free base
  time after administration at which mean Cmax was observed: 1.75 h
[6]; first cohort, 60 mg noribogaine or placebo
  Mean prolongation of the QT interval: less than 10 ms
[6]; [17]
  Adverse effects: No adverse effects of noribogaine were observed in any of the participants
  Hallucinatory effects: no hallucinatory effects
[6]; second cohort, 120 mg noribogaine or placebo
  Mean prolongation of the QT interval: less than 40 ms
[7]; healthy volunteers, 3 mg dose group
  Number of adverse events reported: five adverse events were reported by two subjects
[7]; healthy volunteers, 10 mg dose group, single subject
  Number of adverse events reported: one adverse event
[7]; healthy volunteers, 30 mg dose group, single subject
  Number of adverse events reported: one adverse event
[7]; healthy volunteers, 3-60 mg
  Oximetry, capnography, respiratory rate: no changes in oximetry or capnography, or changes in respiratory rate
  Vital signs or safety laboratory tests: no changes in vital signs or safety laboratory tests of note
[7]; healthy volunteers, 3-60 mg, at any time
  QTcF values >500 msec: no QTcF values>500 msec at any time
[7]; healthy volunteers, Dose 3 mg
  Adverse events, Mild: Dizziness; also recorded: Epistaxis; also recorded: Headache; also recorded: Back pain
  Adverse events, Moderate: Headache
[7]; healthy volunteers, Dose 10 mg
  Adverse events, Mild: Headache
[7]; healthy volunteers, Dose 30 mg
  Adverse events, Mild: Headache
[7]; one subject dosed with 10 mg, at 24 hours post-dosing
  Single increase in QTcF: > 60 ms
[8]
  Analgesic effect (duration of hand immersion, VAS pain scores): no analgesic effect
[9]; 30 mg dose group
  Total urine noribogaine elimination (sum of noribogaine and noribogaine glucuronide): 1.16 mg
  Total urine noribogaine elimination as share of the dose administered: 3.9%
[9]; 60 mg dose group
  Total urine noribogaine elimination (sum of noribogaine and noribogaine glucuronide): 0.82 mg
  Total urine noribogaine elimination as share of the dose administered: 1.4%
Cynomolgus monkey
  Single dose maximum tolerated dose (MTD): greater than 160 mg/kg
Cynomolgus monkey; doses up to and including 160 mg/kg
  Mortality or treatment related clinical signs: No mortality or treatment related clinical signs
